# Test results reported in patent publication US20250059220A1, “SUBSTITUTED BENZOTHIOPHENE DERIVATIVES AND METHODS OF USE THEREOF” (Merck Sharp & Dohme LLC, priority 2021, published 2025).
# Legend:
# human PTPN1 (1-435) = human PTPN1 (1-435) (Homo sapiens (Human), UniProt P18031); assay: Human PTPN1 Biochemical Assay; details: DiFMUP substrate, read-out: PTP1B IC50
# Outline: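 Read-out is DiFMUP hydrolysis fluorescence (360 nm excitation, 460 nm emission) after 1 h at room temperature, following 30 min enzyme–compound preincubation.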
# human PTPN2 (1-387) = human PTPN2 (1-387) (Homo sapiens (Human), UniProt P17706); assay: Human PTPN2 Biochemical Assay; details: DiFMUP substrate
# Outline: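 Fluorogenic DiFMUP hydrolysis (1 h, room temperature, read ex 360/em 460 nm) after 30 min compound preincubation with PTPN2 residues 1-387, in 50 mM Tris pH 7.4, 150 mM NaCl, 0.01% Tween20, 0.5 mM DTT. Effects scaled between buffer and enzyme controls, 4-parameter fit gives EC50.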
# Chain of human PTPN2 (1-387) (P17706 other isoform, or with tags, fused parts or gaps): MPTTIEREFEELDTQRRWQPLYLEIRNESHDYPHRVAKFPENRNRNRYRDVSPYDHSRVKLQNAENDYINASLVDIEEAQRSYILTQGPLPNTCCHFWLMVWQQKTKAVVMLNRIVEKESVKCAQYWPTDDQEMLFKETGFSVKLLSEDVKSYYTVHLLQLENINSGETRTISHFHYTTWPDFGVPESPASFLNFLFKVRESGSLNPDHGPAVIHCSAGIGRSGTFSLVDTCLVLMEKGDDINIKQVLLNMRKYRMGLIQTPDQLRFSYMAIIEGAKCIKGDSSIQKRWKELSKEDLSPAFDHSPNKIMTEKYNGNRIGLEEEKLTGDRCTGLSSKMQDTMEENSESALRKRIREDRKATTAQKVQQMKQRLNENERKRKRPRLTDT
# Chain of human PTPN1 (1-435) (P18031 whole entry): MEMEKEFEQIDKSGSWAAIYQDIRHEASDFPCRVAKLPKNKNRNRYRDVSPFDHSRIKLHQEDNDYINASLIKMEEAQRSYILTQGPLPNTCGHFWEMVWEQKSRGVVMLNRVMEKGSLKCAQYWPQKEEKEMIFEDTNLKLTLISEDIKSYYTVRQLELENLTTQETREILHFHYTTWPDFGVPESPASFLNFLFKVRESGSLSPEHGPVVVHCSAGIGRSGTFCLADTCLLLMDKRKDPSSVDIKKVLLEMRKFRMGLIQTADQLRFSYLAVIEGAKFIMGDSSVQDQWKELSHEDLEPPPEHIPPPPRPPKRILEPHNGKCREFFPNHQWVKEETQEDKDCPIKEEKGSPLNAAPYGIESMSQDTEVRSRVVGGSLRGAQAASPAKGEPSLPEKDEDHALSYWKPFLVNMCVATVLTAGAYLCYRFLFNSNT
SMILES,IC50 (human PTPN1 (1-435)),IC50 (human PTPN2 (1-387))
"CS(=O)(=O)CCCOc1cc(C(N)=O)cc2cc(C(F)(F)P(=O)(O)O)sc12 [Compound 453, ammonium ((5-carbamoyl-7-(3-(methylsulfonyl)propoxy)benzo[b]thiophen-2-yl)difluoromethyl)phosphonate]",7860 nM,9580 nM
"CC(C)(O)CCCOc1cc(C(N)=O)cc2c(C(F)(F)F)c(C(F)(F)P(=O)(O)O)sc12 [Compound 456, ((5-carbamoyl-7-((4-hydroxy-4-methylpentyl)oxy)-3-(trifluoromethyl)benzo[b]thiophen-2-yl)difluoromethyl)phosphonic acid]",23.2 nM,14.1 nM
"CNS(=O)(=O)c1cc(OCCCC(F)(F)F)c2sc(C(F)(F)P(=O)(O)O)c(Br)c2c1 [Compound 459, ((3-bromo-5-(N-methylsulfamoyl)-7-(4,4,4-trifluorobutoxy)benzo[b]thiophen-2-yl)difluoromethyl)phosphonic acid]",616 nM,892 nM
"CS(=O)(=O)c1ccc(COc2cc(C(N)=O)cc3c(Br)c(C(F)(F)P(=O)(O)O)sc23)c(C#N)c1 [Compound 463, ((3-bromo-5-carbamoyl-7-((2-cyano-4-(methylsulfonyl)benzyl)oxy)benzo[b]thiophen-2-yl)difluoromethyl)phosphonic acid]",14.8 nM,6.7 nM
"NC(=O)c1cc(OCC(F)CC(F)(F)F)c2sc(C(F)(F)P(=O)(O)O)c(Br)c2c1 (stereo not drawn) [Compound 464, ((3-bromo-5-carbamoyl-7-(2,4,4,4-tetrafluorobutoxy)benzo[b]thiophen-2-yl)difluoromethyl)phosphonic acid]",42.6 nM,39.7 nM

# More lines, now with the values ahead:
IC50 (human PTPN1 (1-435)),IC50 (human PTPN2 (1-387)),SMILES
40.3 nM,24.5 nM,"CS(=O)(=O)CCCOc1cc(C(N)=O)cc2c(C(F)F)c(C(F)(F)P(=O)(O)O)sc12 [Compound 454, ((5-carbamoyl-3-(difluoromethyl)-7-(3-(methylsulfonyl)propoxy)benzo[b]thiophen-2-yl)difluoromethyl)phosphonic acid]"
3.6 nM,2.69 nM,"N#Cc1c(C(F)(F)P(=O)(O)O)sc2c(OCCCS(N)(=O)=O)cc(-c3c[nH]nn3)cc12 [Compound 455, ((3-cyano-7-(3-sulfamoylpropoxy)-5-(1H-1,2,3-triazol-4-yl)benzo[b]thiophen-2-yl)difluoromethyl)phosphonic acid]"
2.5 nM,2.5 nM,"N#Cc1c(C(F)(F)P(=O)(O)O)sc2c(OCCCS(N)(=O)=O)cc(-c3nc[nH]n3)cc12 [Compound 457, ((3-cyano-7-(3-sulfamoylpropoxy)-5-(1H-1,2,4-triazol-3-yl)benzo[b]thiophen-2-yl)difluoromethyl)phosphonic acid]"
2.5 nM,2.5 nM,"CS(=O)(=O)CCCOc1cc(-c2cc(=O)cc[nH]2)cc2c(Br)c(C(F)(F)P(=O)(O)O)sc12 [Compound 460, ((3-bromo-7-(3-(methylsulfonyl)propoxy)-5-(4-oxo-1,4-dihydropyridin-2-yl)benzo[b]thiophen-2-yl)difluoromethyl)phosphonic acid]"
